Entries after “also recorded” stand apart in the source; their conditions may differ.

Assay [1] has as its system B16 cells expressing truncated Lysine racemase (lyr). The experiment in a line: Growth on D-lysine of cells expressing truncated lyr. Format: cell-based, mouse. The settings on record: mono- and co-culture in vitro. The procedure: CTAP can be quickly adaptable across many cell types without phenotypic or molecular disturbance. Cell lines that are suitable for use in practicing the method of the invention include, but are not limited to mouse fibroblast 3T3 cells, mouse melanoma, B16 cells, human embryonic kidney (HEK) cells, human mammary adenocarcinoma cells, […], etc.
Cell lines were grown in Dulbecco's modified Eagle's medium (DMEM) without L-Lysine and L-Arginine (SILAC-DMEM, Thermo Fisher Scientific) supplemented with 10% dialyzed FBS, antibiotics, and L-glutamine. For mono-culture growth assays, 1 mM L-Arginine was added to the media and cells were seeded in 200 μL in 96-well plates with 4000 or 5000 cells per well in different concentrations of L-Lysine, meso-2,6-diaminopimelate (DAP, Sigma, 33240), D-Lysine HCL (Sigma, L5876), N-α-Cbz-L-Lysine (Z-Lysine, BaChem, C-2200), or N2-acetyl-L-Lysine (N2A, Sigma, A2010). Cell viability was measured using either the metabolic-activity based Resazurin (Sigma) reagent or the impedance-based xCELLigence system (Roche). […] For xCELLigence experiments, cells were plated in either 16 or 96-well E-plates, allowed to settle for 30 minutes at room temperature, and then placed in the RTCA DP or RTCA MP analyzer where impedance was measured every 15 minutes for 96-120 hours. […]

Assay [2] relates to HEK293T cells expressing a truncated Lysine racemase (lyr). The experiment in a line: Growth on D-lysine of cells expressing truncated lyr (xCELLigence impedance). The class given is cell-based, human. The settings on record: mono- and co-culture in vitro. The protocol:
(§1) Cell growth, assessed with impedance (a correlate of the number of cells) using the xCELLigence system, was normalized to maximum growth. Error bars represent the standard deviation of three biological replicates.
Cell lines were grown in Dulbecco's modified Eagle's medium (DMEM) without L-Lysine and L-Arginine (SILAC-DMEM, Thermo Fisher Scientific) supplemented with 10% dialyzed FBS, antibiotics, and L-glutamine. For mono-culture growth assays, 1 mM L-Arginine was added to the media and cells were seeded in 200 μL in 96-well plates with 4000 or 5000 cells per well in different concentrations of L-Lysine, meso-2,6-diaminopimelate (DAP, Sigma, 33240), D-Lysine HCL (Sigma, L5876), N-α-Cbz-L-Lysine (Z-Lysine, BaChem, C-2200), or N2-acetyl-L-Lysine (N2A, Sigma, A2010). Cell viability was measured using either the metabolic-activity based Resazurin (Sigma) reagent or the impedance-based xCELLigence system (Roche). For Resazurin experiments, 25 μL of the Resazurin reagent was added to each well and cellular growth was estimated after two to three hours of incubation at 37° C. as described by the manufacturer. For xCELLigence experiments, cells were plated in either 16 or 96-well E-plates, allowed to settle for 30 minutes at room temperature, and then placed in the RTCA DP or RTCA MP analyzer where impedance was measured every 15 minutes for 96-120 hours. […]

Assay [3] has as its system MDA-MB-231 cells expressing truncated Lysine racemase (lyr). The experiment in a line: Growth on D-lysine of cells expressing truncated lyr. The class given is cell-based, human. The settings on record: mono- and co-culture in vitro. The procedure: (§2) Cell lines were grown in Dulbecco's modified Eagle's medium (DMEM) without L-Lysine and L-Arginine (SILAC-DMEM, Thermo Fisher Scientific) supplemented with 10% dialyzed FBS, antibiotics, and L-glutamine. For mono-culture growth assays, 1 mM L-Arginine was added to the media and cells were seeded in 200 μL in 96-well plates with 4000 or 5000 cells per well in different concentrations of L-Lysine, meso-2,6-diaminopimelate (DAP, Sigma, 33240), D-Lysine HCL (Sigma, L5876), N-α-Cbz-L-Lysine (Z-Lysine, BaChem, C-2200), or N2-acetyl-L-Lysine (N2A, Sigma, A2010). Cell viability was measured using either the metabolic-activity based Resazurin (Sigma) reagent or the impedance-based xCELLigence system (Roche). For Resazurin experiments, 25 μL of the Resazurin reagent was added to each well and cellular growth was estimated after two to three hours of incubation at 37° C. as described by the manufacturer. For xCELLigence experiments, cells were plated in either 16 or 96-well E-plates, allowed to settle for 30 minutes at room temperature, and then placed in the RTCA DP or RTCA MP analyzer where impedance was measured every 15 minutes for 96-120 hours. At least three replicates were performed for each condition.

The test system of another assay is DDC-expressing 3T3 cells. The experiment in a line: Growth rescue on precursors in L-Lysine-free medium (xCELLigence impedance). Format: cell-based, mouse. The settings on record: 10 mM DAP or 4 mM D-Lysine, mono-culture. The protocol:
as §1
as §2, with “For mono-culture growth assays, 1 mM L-Arginine was added to the media and cells were seeded in 200 μL in 96-well plates with 4000 or 5000 cells per well in different concentrations of L-Lysine, meso-2,6-diaminopimelate (DAP, Sigma, 33240), D-Lysine HCL (Sigma, L5876), N-α-Cbz-L-Lysine (Z-Lysine, BaChem, C-2200), or N2-acetyl-L-Lysine (N2A, Sigma, A2010).” left out

Another assay relates to HEK 293T cells. As to the kind of experiment: Growth of wild-type cells on L-Lysine precursors (Resazurin/AlamarBlue). Format: cell-based, human. The settings on record: wild-type HEK 293T; medium without L-Lysine supplemented with high (mM-range) concentrations of precursor. The procedure:
(§3) (a) Cells were seeded in 96 well format using at least 4 replicates per condition and cell proliferation was measured with the Resazurin (AlamarBlue) assay at the time indicated.
(§4) To investigate the candidate precursors and eliminate those that autonomously rescue L-Lysine auxotrophy, growth rates in SILAC media supplemented with L-Lysine, various precursors, or in L-Lysine-free conditions were examined.
as §2, with “For mono-culture growth assays, 1 mM L-Arginine was added to the media and cells were seeded in 200 μL in 96-well plates with 4000 or 5000 cells per well in different concentrations of L-Lysine, meso-2,6-diaminopimelate (DAP, Sigma, 33240), D-Lysine HCL (Sigma, L5876), N-α-Cbz-L-Lysine (Z-Lysine, BaChem, C-2200), or N2-acetyl-L-Lysine (N2A, Sigma, A2010).” left out
For orientation: Alamar Blue is a resazurin reagent that responds to reducing activity.

Assay [4] has as its system lyr-expressing MDA-MB-231 cells. The experiment in a line: Growth rescue on precursors in L-Lysine-free medium (xCELLigence impedance). The class given is cell-based, human. The settings on record: 4 mM D-Lysine or 10 mM DAP, mono-culture. The protocol:
as §1
as §2, with “For mono-culture growth assays, 1 mM L-Arginine was added to the media and cells were seeded in 200 μL in 96-well plates with 4000 or 5000 cells per well in different concentrations of L-Lysine, meso-2,6-diaminopimelate (DAP, Sigma, 33240), D-Lysine HCL (Sigma, L5876), N-α-Cbz-L-Lysine (Z-Lysine, BaChem, C-2200), or N2-acetyl-L-Lysine (N2A, Sigma, A2010).” left out

For another assay, the system named is 3T3 cells. The experiment in a line: Growth of wild-type cells on L-Lysine precursors (Resazurin/AlamarBlue). The class given is cell-based, mouse. The settings on record: wild-type 3T3; medium without L-Lysine supplemented with high (mM-range) concentrations of precursor. The protocol:
as §3, §4
as §2, with “For mono-culture growth assays, 1 mM L-Arginine was added to the media and cells were seeded in 200 μL in 96-well plates with 4000 or 5000 cells per well in different concentrations of L-Lysine, meso-2,6-diaminopimelate (DAP, Sigma, 33240), D-Lysine HCL (Sigma, L5876), N-α-Cbz-L-Lysine (Z-Lysine, BaChem, C-2200), or N2-acetyl-L-Lysine (N2A, Sigma, A2010).” left out

Assay [5] concerns DDC-expressing HEK293T cells. The experiment in a line: Growth rescue on precursors in L-Lysine-free medium (xCELLigence impedance). The class given is cell-based, human. The conditions noted are these: 10 mM DAP, mono-culture. The procedure:
FIG. 9 are graphs showing that HEK293T cells expressing the L-Lysine biosynthesis enzyme diaminopimelate decarboxylase (DDC) specifically grow on meso-2,6-diaminopimelate (DAP). HEK293T cells stably transfected with DDC (left panel) or empty control vector (right panel) were cultured in 0.798 mM L-Lysine, 10 mM DAP, or neither (blank). Cell growth was estimated by the impedance-based xCelligence assay and data was normalized to the maximum value for each cell-type. Note that only HEK293T cells that express DDC grow on DAP. Error bars represent the standard deviation of three biological replicates.
The time to reach normal growth rates varied between cell-types from immediate to a short passaging/selection period.
(§5) Cell lines were grown in Dulbecco's modified Eagle's medium (DMEM) without L-Lysine and L-Arginine (SILAC-DMEM, Thermo Fisher Scientific) supplemented with 10% dialyzed FBS, antibiotics, and L-glutamine. […] Cell viability was measured using either the metabolic-activity based Resazurin (Sigma) reagent or the impedance-based xCELLigence system (Roche). […] For xCELLigence experiments, cells were plated in either 16 or 96-well E-plates, allowed to settle for 30 minutes at room temperature, and then placed in the RTCA DP or RTCA MP analyzer where impedance was measured every 15 minutes for 96-120 hours. […]

In assay [6] the test system is CBZcleaver-expressing 3T3 cells. As to the kind of experiment: Growth on Z-Lysine (xCELLigence impedance). Format: cell-based, mouse. The conditions noted are these: 2.5 mM Z-Lysine, L-Lysine-free. The procedure:
FIG. 10 are graphs showing that 3T3 cells expressing the CBZcleaver enzyme grow on Z-Lysine and partially incorporate L-Lysine produced from Z-Lysine (CBZ-Lysine). (a) 3T3 cells stably trasfected with CBZcleaver (left panel) or empty control vector (right panel) were cultured in 0.798 mM L-Lysine, 2.5 mM Z-Lysine, or without either (blank). Cell growth was estimated by the impedance-based xCELLigence assay and data was normalized to maximum values for each cell-type. Error bars represent the standard deviation of three biological replicates. […] The labeling status was assessed by quantitative LC-MS/MS at the beginning of the experiment where the cells were labeled with medium L-Lysine (left, K4) and after 10 days in L-Lysine-free media with heavy labeled Z-Lysine (right, Z8). […]
as §5

Take `NCCCC[C@@H](N)C(=O)O` [D-Lysine]: the “growth on D-lysine relative to growth on L-lysine” value in assay [1], in [2] and in assay [3] was “comparable” in each case. Further, the “growth rate relative to media containing L-Lysine” value is listed as “no growth” in the assay on DDC-expressing 3T3 cells and “comparable” in assay [4]. Besides, the growth response entry in the assay on HEK 293T cells and in the assay on 3T3 cells was “no or limited growth response” throughout.

With `N[C@H](CCC[C@H](N)C(=O)O)C(=O)O` [DAP, meso-2,6-diaminopimelate], the figures for the “growth rate relative to media containing L-Lysine” value (with DDC-expressing 3T3 cells; in [4]; in assay [5]) were “comparable”, “no growth” and “comparable”, respectively. The growth response result in the assay with HEK 293T cells and in the assay on 3T3 cells was “no or limited growth response” each time.

As for `CC(=O)N[C@@H](CCCCN)C(=O)O` [N2A, N2-acetyl-L-Lysine], the growth response result in the assay with HEK 293T cells and in the assay with 3T3 cells was “substantial growth response” each time.

On to `NCCCC[C@H](NC(=O)OCc1ccccc1)C(=O)O` [Z-Lysine, N-α-Cbz-L-Lysine], for which the “growth on Z-Lysine” value in assay [6] is listed as “incomplete; also recorded: specific growth rescue”. Also, the growth response result in the assay on HEK 293T cells and with 3T3 cells was “no or limited growth response” each time.

These data come from patent US20150268248A1, “CELL SELECTIVE PROTEOME LABELING” (MEMORIAL SLOAN-KETTERING CANCER CENTER, priority 2012, published 2015).
